Measurements reported in patent EP0421419A2, “Tocotrienols in the treatment of hypercholesterolemia, hyperlipidemia and thromboembolic disorders” (Bristol-Myers Squibb Company, priority 1989, dated 1991).
Converted amounts (≈) assume the structure as drawn. Read-outs that look alike come from different tables or passages of the source.

Tested on: Cholesterol Synthesis in Isolated Rat Hepatocytes
Assay: Rat hepatocyte cholesterol biosynthesis model (14C-acetate incorporation into digitonin-precipitable sterols)
Format: cell-based
Details: for inhibition at 125 µg/mL / inhibition at 250 µg/mL / inhibition at 500 µg/mL / IC50: Rattus norvegicus, Hepatocyte, 45 min preincubation, 30 min incorporation
Description: Primary rat parenchymal hepatocytes were prepared from male Wistar rats (180-220 g) at mid-dark in the diurnal cycle by standard collagenase perfusion method as described previously. Ingebritsen et al. J. Biol. Chem., 254: 9986-9989, (1979). Aliquots of cells were suspended (100 mg in 2 ml) in Eagle's minimum essential medium (MEM) supplemented with 2% bovine albumin, and preincubated in a shaking water bath at about 37° under 95% O₂/5% CO₂ with compounds added as given in the data. […] Following a preincubation of about 15 to about 45 minutes as indicated, cholesterol synthesis in intact cells was assayed by 2-14C-acetate (1.8 mCi/mmol, 0.5 µCi/ml) incorporation for about 30 to about 60 minutes (previously shown to be time-linear) into total digitonin-precipitable sterols. […] Percent inhibition was calculated from the average of duplicates vs. triplicate vehicle controls conducted simultaneously.
The primary rat hepatocyte assay for cholesterol bio-synthesis inhibition was conducted as described in Example 2 except the preincubation was about 45 minutes and the 14C-acetate incorporation was about 30 minutes. The indicated compounds were purified from the same natural product source as the mixture used in Example 2. […] Two-component mixtures of the constituents separated from the tocotrienol mixture were tested under the conditions indentical to Table 2A.

Structure (SMILES) | inhibition at 125 µg/mL (read-out: % Inhibition at µg/ml conc: 125, 125 µg/ml, Expt. # 2) [%] | inhibition at 250 µg/mL (read-out: % Inhibition at µg/ml conc: 250, 250 µg/ml, Expt. # 1) [%] | inhibition at 250 µg/mL (read-out: % Inhibition at µg/ml conc: 250, 250 µg/ml, Expt. # 2) [%] | inhibition at 500 µg/mL (read-out: % Inhibition at µg/ml conc: 500, 500 µg/ml, Expt. # 1) [%] | inhibition at 500 µg/mL (read-out: % Inhibition at µg/ml conc: 500, 500 µg/ml, Expt. # 2) [%] | IC50 (read-out: IC₅₀, Expt. # 1) [µg/mL] | IC50 (read-out: IC₅₀, Expt. # 2) [µg/mL] | inhibition at 125 µg/mL (125 µg/ml, Expt. # 2, read-out: % Inhibition at µg/ml conc: 125) [%] | inhibition at 250 µg/mL (250 µg/ml, Expt. # 1, read-out: % Inhibition at µg/ml conc: 250) [%] | inhibition at 250 µg/mL (250 µg/ml, Expt. # 2, read-out: % Inhibition at µg/ml conc: 250) [%] | inhibition at 500 µg/mL (500 µg/ml, Expt. # 1, read-out: % Inhibition at µg/ml conc: 500) [%] | inhibition at 500 µg/mL (500 µg/ml, Expt. # 2, read-out: % Inhibition at µg/ml conc: 500) [%] | IC50 (Expt. # 1, read-out: IC₅₀) [µg/mL] | IC50 (Expt. # 2, read-out: IC₅₀) [µg/mL] | times more active than alpha-tocotrienol (rat and chicken hepatocyte system)
CC(C)=CCC/C(C)=C/CC/C(C)=C/CC[C@]1(C)CCc2cc(O)c(C)c(C)c2O1 [d-γ-tocotrienol] | 28 | 48 | 34 | 60 | 61 | 270 (≈ 658 µM) | 360 (≈ 877 µM) |  |  |  |  |  |  |  | 
CC(C)=CCC/C(C)=C/CC/C(C)=C/CC[C@]1(C)CCc2cc(O)cc(C)c2O1 [d-δ-tocotrienol] |  |  |  |  |  |  |  | 26 | 49 | 33 | 62 | 63 | 260 (≈ 656 µM) | 340 (≈ 857 µM) | at least 5 times
